{
  "source": "patent US20210290648A1",
  "about": "“Potentiation of B-Lactam Antibiotics and B-Lactam/B-Lactamase Inhibitor Combinations Against Multidrug and Extensively Drug-Resistant Pseudomonas Aeruginosa Using Non-Ribosomal Tobramycin-Cyclam Conjugates” (University of Manitoba, priority 2018, published 2021)",
  "type_in_all_cases": "cell-based, Pseudomonas aeruginosa",
  "key": {"WT P. aeruginosa PAO1": {"test_system": "WT P. aeruginosa PAO1", "test": "Checkerboard combination study / MIC"}, "PA 100036": {"test_system": "PA 100036", "test": "Checkerboard combination study / MIC"}, "PA 101885": {"test_system": "PA 101885", "test": "Checkerboard combination study / MIC"}, "PA 259": {"test_system": "PA 259", "test": "Checkerboard combination study / MIC"}, "PA 260": {"test_system": "PA 260", "test": "Checkerboard combination study / MIC"}, "PA 262": {"test_system": "PA 262", "test": "Checkerboard combination study / MIC"}, "PA 264": {"test_system": "PA 264", "test": "Checkerboard combination study / MIC"}, "PA 91433": {"test_system": "PA 91433", "test": "Checkerboard combination study / MIC", "conditions": "PA 91433"}, "PA 101243": {"test_system": "PA 101243", "test": "Checkerboard combination study / MIC", "conditions": "PA 101243"}, "PA 114228": {"test_system": "PA 114228", "test": "Checkerboard combination study / MIC"}, "PAO200": {"test_system": "PAO200", "description": "(§1) PAO200 is a tnexA-rnexB-oprM deletion strain while PAO750 lacks five important RND pumps (McxAB-OprM, MexCD-OprJ, MexEF-OprN, Mex JK, and MexXY) and the outer membrane protein OpmH (46, 47). Some of these pumps are homologues of broad substrate specificities that extrude different classes of antimicrobial agents and confer resistance on P. aeruginosa (48).\n(§2) Antimicrobial Susceptibility Assay. The in vitro antimicrobial activity of all compounds/antibiotics against a panel of bacteria was evaluated by microbroth dilution method in accordance with the Clinical and Laboratory Standards Institute (CLSI) guidelines. Overnight grown bacterial cultures were diluted in saline to achieve a 0.5 McFarland turbidity, followed by 1:50 dilution in Mueller-Hinton broth (MHB) for inoculation to a final concentration of approximately 5×10^5CFU/mL. The antimicrobial agents were 2-fold serially diluted in MHB in a 96-well plate and incubated at 37° C. with equal volumes of inoculum for 18 h. The lowest concentration that prevented the visible growth of bacteria was defined as the MIC for each antimicrobial agent. The broth with or without bacterial cells was used as positive or negative control, respectively.\n(§3) Checkerboard Assay. Combination studies with different antibiotics were performed in 96-well plates as previously described (22). Briefly, the antibiotic of interest was serially diluted in MHB along the abscissa while the adjuvant (newly synthesized conjugates) was serially diluted in MHB along the ordinate. This creates a 10×7 matrix wherein each well consists of a combination of different antibiotic and adjuvant concentrations. Overnight grown bacterial cultures were diluted in saline to achieve a 0.5 McFarland turbidity, followed by 1:50 dilution in Mueller-Hinton broth (MHB) for inoculation to a final concentration of approximately 5×10^5CFU/mL. Equal volume of this bacterial culture was then added to each well and incubated at 37° C. for 18 h. After incubation, the plates were read on EMax® Plus microplate reader (Molecular Devices, Sunnyvale, Calif., USA) at 590 nm. MIC was recorded as wells with the lowest concentration of drugs with no bacterial growth. The fractional inhibitory concentration (FIC) for each antibiotic was calculated by dividing the MIC of the antibiotic in the presence of adjuvant by the MIC of the antibiotic alone. Similarly, the FIC of adjuvant was calculated by dividing the MIC of the adjuvant in the presence of antibiotic by the MIC of the adjuvant alone. FIC index is the sum of both FICs. FIC indices of <0.5 were deemed synergistic; 0.5-4, no interaction; and >4, antagonistic."}, "PAO750": {"test_system": "PAO750", "description": "as §1, §2, §3"}, "[1]": {"test_system": "MDR/XDR P. aeruginosa clinical isolates", "test": "MIC and checkerboard, panel of clinical isolates", "conditions": "antibiotic + compound 2 (8.7 μM); resistant P. aeruginosa isolates"}, "[2]": {"conditions": "MIC of antibiotic combined with compound 2"}},
  "data": [
    {"smiles": "CO/N=C(\\C(=O)N[C@@H]1C(=O)N2C(C(=O)O)=C(COC(C)=O)CS[C@H]12)c1csc(N)n1", "note": "[Cefotaxime]", "values": [
      {"measurement": "MIC of antibiotic + Compound 2 in PAO1", "setting": "WT P. aeruginosa PAO1; + compound 2 ≤8.7 μM, PAO1", "value": "4 (4) μg/ml"},
      {"measurement": "MIC", "setting": "WT P. aeruginosa PAO1; Pseudomonas aeruginosa, PAO1, 18 h, antibiotic alone, WT PAO1 (Table 2), read-out: MIC alone", "value": 16, "unit": "µg/mL"},
      {"measurement": "FICI in the presence of ≤10 μM of 1", "setting": "WT P. aeruginosa PAO1; antibiotic + compound 1, WT PAO1", "value": 0.13},
      {"measurement": "MIC of Antibiotics in the presence of ≤10 μM of 1", "setting": "WT P. aeruginosa PAO1; antibiotic + compound 1 ≤10 μM, WT PAO1", "value": 2, "unit": "µg/mL"},
      {"measurement": "FICI in the presence of ≤10 μM of 2", "setting": "WT P. aeruginosa PAO1; antibiotic + compound 2, WT PAO1", "value": 0.26},
      {"measurement": "MIC of Antibiotics in the presence of ≤10 μM of 2", "setting": "WT P. aeruginosa PAO1; antibiotic + compound 2 ≤10 μM, WT PAO1", "value": 4, "unit": "µg/mL"},
      {"measurement": "FICI in the presence of ≤10 μM of 3", "setting": "WT P. aeruginosa PAO1; antibiotic + compound 3, WT PAO1", "value": 0.27},
      {"measurement": "MIC of Antibiotics in the presence of ≤10 μM of 3", "setting": "WT P. aeruginosa PAO1; antibiotic + compound 3 ≤10 μM, WT PAO1", "value": 4, "unit": "µg/mL"},
      {"measurement": "MIC of antibiotic alone in PAO1", "setting": "WT P. aeruginosa PAO1; antibiotic alone, PAO1 wild-type (Table 4)", "value": 16, "unit": "µg/mL"},
      {"measurement": "MICCombination (antibiotic)", "setting": "PA 100036; [2]", "value": 8, "unit": "µg/mL"},
      {"measurement": "FICI", "setting": "PA 100036; antibiotic + compound 2", "value": "<0.31"},
      {"measurement": "MICAntibiotic", "setting": "PA 100036; antibiotic alone", "value": 32, "unit": "µg/mL"},
      {"measurement": "FICAntibiotic", "setting": "PA 100036; with compound 2", "value": 0.250},
      {"measurement": "MICCombination (antibiotic)", "setting": "PA 101885; [2]", "value": 8, "unit": "µg/mL"},
      {"measurement": "FICI", "setting": "PA 101885; antibiotic + compound 2", "value": "<0.13"},
      {"measurement": "MICAntibiotic", "setting": "PA 101885; antibiotic alone", "value": 128, "unit": "µg/mL"},
      {"measurement": "FICAntibiotic", "setting": "PA 101885; with compound 2", "value": 0.063},
      {"measurement": "MICCombination (antibiotic)", "setting": "PA 259; [2]", "value": 512, "unit": "µg/mL"},
      {"measurement": "FICI", "setting": "PA 259; antibiotic + compound 2", "value": "<0.31"},
      {"measurement": "MICAntibiotic", "setting": "PA 259; antibiotic alone", "value": 2048, "unit": "µg/mL"},
      {"measurement": "FICAntibiotic", "setting": "PA 259; with compound 2", "value": 0.250},
      {"measurement": "MICCombination (antibiotic)", "setting": "PA 260; [2]", "value": 512, "unit": "µg/mL"},
      {"measurement": "FICI", "setting": "PA 260; antibiotic + compound 2", "value": "<0.53"},
      {"measurement": "MICAntibiotic", "setting": "PA 260; antibiotic alone", "value": 1024, "unit": "µg/mL"},
      {"measurement": "FICAntibiotic", "setting": "PA 260; with compound 2", "value": 0.500},
      {"measurement": "MICCombination (antibiotic)", "setting": "PA 262; [2]", "value": 32, "unit": "µg/mL"},
      {"measurement": "FICI", "setting": "PA 262; antibiotic + compound 2", "value": "<0.31"},
      {"measurement": "MICAntibiotic", "setting": "PA 262; antibiotic alone", "value": 128, "unit": "µg/mL"},
      {"measurement": "FICAntibiotic", "setting": "PA 262; with compound 2", "value": 0.250},
      {"measurement": "MICCombination (antibiotic)", "setting": "PA 264; [2]", "value": 512, "unit": "µg/mL"},
      {"measurement": "FICI", "setting": "PA 264; antibiotic + compound 2", "value": "<0.31"},
      {"measurement": "MICAntibiotic", "setting": "PA 264; antibiotic alone", "value": 2048, "unit": "µg/mL"},
      {"measurement": "FICAntibiotic", "setting": "PA 264; with compound 2", "value": 0.250},
      {"measurement": "MICCombination (antibiotic)", "setting": "PA 91433; [2]", "value": 8, "unit": "µg/mL"},
      {"measurement": "FICI", "setting": "PA 91433; antibiotic + compound 2", "value": "<0.07"},
      {"measurement": "MICAntibiotic", "setting": "PA 91433; antibiotic alone", "value": 1024, "unit": "µg/mL"},
      {"measurement": "FICAntibiotic", "setting": "PA 91433; with compound 2", "value": 0.008},
      {"measurement": "MICCombination (antibiotic)", "setting": "PA 101243; [2]", "value": 128, "unit": "µg/mL"},
      {"measurement": "FICI", "setting": "PA 101243; antibiotic + compound 2", "value": "<0.50"},
      {"measurement": "MICAntibiotic", "setting": "PA 101243; antibiotic alone", "value": 256, "unit": "µg/mL"},
      {"measurement": "FICAntibiotic", "setting": "PA 101243; with compound 2", "value": 0.500},
      {"measurement": "MICCombination (antibiotic)", "setting": "PA 114228; [2]", "value": 16, "unit": "µg/mL"},
      {"measurement": "FICI", "setting": "PA 114228; antibiotic + compound 2", "value": "<0.14"},
      {"measurement": "MICAntibiotic", "setting": "PA 114228; antibiotic alone", "value": 128, "unit": "µg/mL"},
      {"measurement": "MIC of antibiotic + Compound 2 in PAO200", "setting": "PAO200; + compound 2 ≤8.7 μM, PAO200", "value": 4, "unit": "µg/mL"},
      {"measurement": "MIC of antibiotic alone in PAO200", "setting": "PAO200; antibiotic alone, PAO200 efflux-deficient", "value": 8, "unit": "µg/mL"},
      {"measurement": "MIC of antibiotic + Compound 2 in PAO750", "setting": "PAO750; + compound 2 ≤8.7 μM, PAO750", "value": 2, "unit": "µg/mL"},
      {"measurement": "MIC of antibiotic alone in PAO750", "setting": "PAO750; antibiotic alone, PAO750 efflux-deficient", "value": 32, "unit": "µg/mL"},
      {"measurement": "resistant isolates reaching CLSI clinical breakpoint", "setting": "[1]", "value": "four out of ten"}
    ]}
  ]
}
